# Results taken from patent US9393271B2, “GHRH agonists for islet cell transplantation and function and the treatment of diabetes” (UNIVERSITY OF MIAMI, priority 2012, dated 2016).
# Non-standard residues stand in square brackets, D forms with d. Residues, ends and D or L forms follow the SMILES beside them. NMeY = CN[C@@H](Cc1ccc(O)cc1)C(=O)O; Nle = CCCC[C@H](N)C(=O)O; Orn = NCCC[C@H](N)C(=O)O; Abu = CC[C@H](N)C(=O)O
# What was measured:
# rat islets = assay: Viability of rat islets alone or in co-culture with adrenal cells; assay type: cell-based; conditions: rat islets alone, 10^-8 M, 24 hrs
# Experimental: Pancreatic islets were isolated from female Wistar rats as described in prior art, and according to guidelines established by the University Institutional Animal Care and Use Committee. Briefly, animals were anesthetized by 3% isoflurane and digestion solution (Collagenase V; Sigma-Aldrich) was injected via the pancreatic duct. Islets were isolated by discontinuous Ficoll gradient centrifugation (Sigma-Aldrich). Isolated islets were cultured in RPMI 1640 (PAA) supplemented with 10% FBS at 37° C. in a 5% CO2 atmosphere prior to further experimentation. Yield and purity of islets were determined by microscopic sizing after staining with dithizone (Sigma-Aldrich) as previously described.
# Female Wistar rats were used as adrenal donors according to guidelines established by the University Institutional Animal Care and Use Committee. After euthanization, the adrenal glands were rapidly removed and kept in PBS at 4° C. After removal of adipose tissue, the capsule was removed. The tissue was then incubated at 37° C. in PBS containing collagenase type II (2.0 mg/ml; Sigma-Aldrich) and DNase (0.15 mg/ml; Sigma-Aldrich). After incubation for 30 min, the digestion was stopped by adding cold PBS. […]
# Isolated rat islets and co-cultured islets were treated with P-27403 at a concentration of 10^−8 M or with 0.1% DMSO as control for 24 hrs, and then analyzed for viability. […]
# GH level [1] = assay: In vivo endocrine activity (GH release), subcutaneous administration; conditions: rat, s.c.
# Experimental: Subcutaneous Administration. Adult male rats were used and anesthetized with pentobarbital (6 mg/100 g, b.w.), by i.p. injection. […] Blood samples were taken from the jugular vein 5, 15 and/or 30 minutes after the injection. The blood samples were centrifuged, plasma was removed and the GH level was measured by ELISA. The results are summarized in terms of potency in Table 9.
# INS-1 cells [2] = assay: INS-1 cell viability (CellTiter 96 AQueous One Solution); assay type: cell-based, rat; conditions: 10^-7 to 10^-9 M, 24 hrs
# Experimental: (§1) Rat insulinoma cells (INS-1) were cultured in RPMI Medium 1640 (PAA) containing 2 mM L-glutamine, 10% FBS, 1 mM Na-pyruvate, 50 μM 2-mercaptoethanol, and 100 U/mL penicillin/streptomycin (Gibco) at 37° C. in a 5% CO2 humidified incubator. Medium was exchanged every second day and cells were passaged once per week. INS-1 cells were treated with the GHRH agonist P-27403 at concentrations from 10^−7 to 10^−9 M for 24 hrs and was analyzed for viability and apoptosis. Viability was assessed using CellTiter 96 AQueous One Solution Cell Proliferation Assay (Promega) according to the manufacturer's instructions. Apoptosis was assayed by determination of caspase 3/7 activity using Caspase-Glo 3/7 Assay (Promega) according to manufacturer's instructions.
# INS-1 cells were grown for 72 hours before experimentation. Cells were treated with different GHRH agonist peptides (MR-356/P-20356, MR-361/P-20361, MR-367/P-20367, MR-403/P-27403, MR-409/P-27409, MR-502/P-25502) at different concentrations (10^−6-10^−10 M) or with 0.1% (vol/vol) DMSO as control for 24 h, 48 h and 72 h. Viability was assessed using CellTiter 96 AQueous One Solution Cell Proliferation Assay (Promega) according to the manufacturer's instructions. Treatment of INS-1 cells with GHRH agonist peptides for 72 h improved cell viability. Cell viability was expressed as percent of cells treated with control DMSO (FIG. 7).
# GH level [3] = assay: In vivo endocrine activity (GH release), intravenous administration; conditions: rat
# Experimental: In vivo tests on endocrine activity of new GHRH agonists (Intravenous administration). For in vivo tests based on intravenous administration, adult male Sprague-Dawley rats were anesthetized with pentobarbital (6 mg/100/g, b.w.), and GHRH agonists were injected 20 minutes after the injection of pentobarbital. Blood samples were taken from the jugular vein (pretreated level), immediately after hGHRH(1-29)NH2 injection (as a control) or after hGHRH analogs injection. Blood samples were taken from the jugular vein 5, 15 and 30 minutes after the injection. The blood samples were centrifuged, plasma was removed and the GH level was measured by ELISA.
# INS-1 cells [4] = assay: INS-1 proliferation (BrdU Cell Proliferation Assay); assay type: cell-based, rat
# Experimental: For determination of proliferation activity, BrdU incorporation was performed in INS-1 cells following exposure to P-27403. Proliferation was measured using BrdU Cell Proliferation Assay (Millipore) following the manufacturer's description. The maximal enhancement in proliferation rate of 16% compared to control was found at 10^−8 M concentration of P-27403 (FIG. 1C).
# INS-1 cells were grown for 72 h before experimentation. Cells were treated with GHRH agonists MR356, MR367, and MR403 at different concentrations or with 0.1% (vol/vol) DMSO as control for 24 h, 48 h and 72 h. Proliferation was measured using BrdU Cell Proliferation Assay (Millipore) following the manufacturer's description.
# [5] = biological target: T1, GHRH receptor (human pituitary membrane homogenates) (Homo sapiens, UniProt Q02643); assay: GHRH receptor binding, ligand competition with 125I-labeled JV-1-42 (Table 7); set-up: Normal human pituitaries were purchased from the National Hormone and Peptide Program; tissue National Hormone and Peptide Program (A. F. Parlow, Harbor-UCLA Medical Center, Torrance, Calif.); host or cells: normal human pituitary, membrane fraction / homogenate; conditions: JI-38 = 1
# T1 sequence (Q02643 23-423): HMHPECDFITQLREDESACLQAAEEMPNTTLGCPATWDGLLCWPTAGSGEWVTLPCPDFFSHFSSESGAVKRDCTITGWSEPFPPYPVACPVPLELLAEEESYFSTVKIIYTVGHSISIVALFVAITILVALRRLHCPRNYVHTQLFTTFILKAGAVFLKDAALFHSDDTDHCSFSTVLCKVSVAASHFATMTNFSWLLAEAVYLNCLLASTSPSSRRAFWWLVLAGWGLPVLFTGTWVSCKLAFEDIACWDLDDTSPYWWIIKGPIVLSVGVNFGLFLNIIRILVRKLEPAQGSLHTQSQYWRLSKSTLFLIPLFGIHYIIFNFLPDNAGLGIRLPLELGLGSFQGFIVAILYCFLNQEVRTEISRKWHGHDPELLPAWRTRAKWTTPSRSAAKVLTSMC
# INS-1 cells [6] = assay: INS-1 apoptosis, caspase 3/7 activity (Caspase-Glo 3/7); assay type: cell-based, rat; conditions: 24 hrs
# Experimental: as §1
# INS-1 cells were grown for 72 h before experimentation. Cells were treated with various GHRH agonist peptides at different concentrations or with 0.1% (vol/vol) DMSO as control for 24 h, 48 h and 72 h. Apoptosis was assayed by determination of caspase 3/7 activity using Caspase-Glo 3/7 Assay (Promega) according to the manufacturer's instructions.
smiles,measurement,setting,value
"CCCC[C@H](NC(=O)[C@@H](NC(=O)[C@H](CC(=O)O)NC(=O)[C@H](CCC(N)=O)NC(=O)[C@H](CC(C)C)NC(=O)[C@H](CC(C)C)NC(=O)[C@H](CCCN)NC(=O)[C@H](CCCNC(=N)N)NC(=O)[C@H](C)NC(=O)[C@H](CO)NC(=O)[C@H](CC(C)C)NC(=O)[C@H](CCC(N)=O)NC(=O)[C@H](CC)NC(=O)[C@H](CC(C)C)NC(=O)[C@@H](NC(=O)[C@H](CCCN)NC(=O)[C@H](CCCNC(=N)N)NC(=O)[C@H](Cc1ccc(O)cc1)NC(=O)[C@H](CO)NC(=O)[C@H](CCC(N)=O)NC(=O)[C@@H](NC(=O)[C@H](Cc1ccccc1)NC(=O)[C@@H](NC(=O)[C@H](C)NC(=O)[C@H](CC(=O)O)NC(=O)[C@@H](C)NC(=O)[C@H](Cc1ccc(O)cc1)NC)[C@@H](C)CC)[C@@H](C)O)C(C)C)[C@@H](C)CC)C(=O)N[C@@H](CC(=O)O)C(=O)N[C@@H](CCCNC(=N)N)C(=O)NC [Peptide P-27403, [N—Me-Tyr^1, D-Ala^2, Gln^8, Orn^12, Abu^15, Orn^21, Nle^27, Asp^28]hGHRH(1-29)NH—CH3] (H-[NMeY][dA]DAIFTQSYR[Orn]VL[Abu]QLSAR[Orn]LLQDI[Nle]DR-NHMe)",Islet viability,rat islets,increase in viability
same,Islet viability,rat islets; listed as MR403,increase of viability
same,Stimulation of growth hormone levels after s.c. administration (comparison in words),GH level [1],stimulated greater growth hormone levels than hGHRH or JI-38
same,Viability compared to control,INS-1 cells [2],increased viability at all concentrations used
same,Stimulation of growth hormone levels after i.v. administration (comparison in words),GH level [3],most potent
same,Enhancement in proliferation rate compared to control,"INS-1 cells [4]; 10^-8 M, 24 hrs",16%
same,Cell proliferation compared to control,"INS-1 cells [4]; different concentrations, 24 h, 48 h and 72 h",significantly induced cell proliferation
same,Relative affinitiy (Binding potency) vs JI-38,[5],27.19
same,"Apoptosis, caspase 3/7 activity",INS-1 cells [6]; 10^-7 to 10^-9 M,overall reduction of apoptosis
same,Reduction of apoptosis (caspases 3/7 activity),INS-1 cells [6]; 10^-8 M,14%
same,Reduction of apoptosis (caspases 3/7 activity),INS-1 cells [6]; 10^-9 M,18%
